Results reported in patent publication US9815796B2 (Merck Sharp & Dohme Corp., priority 2013, dated 2017).
Read-outs that look alike come from different tables or passages of the source.

Columns and labels:
Rhesus PDE2A3 = Rhesus PDE2A3 (Macaca mulatta, UniProt B3VTJ2); test: PDE2 fluorescence polarization (IMAP FP) inhibition assay, rhesus enzyme; format: biochemical, rhesus macaque
How it was run: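 IMAP FP (mP from parallel and perpendicular fluorescence against substrate-only control) was read ≥1 h after adding binding reagent. The preceding 60 min room-temperature reaction contained FAM-cAMP (50 nM) and cGMP (1 uM) in pH 7.2 Tris buffer with MgCl2 and DTT. Enzyme was supernatant of sonicated AD293 cells expressing rhesus PDE2A3; compounds were 3-fold titrated, DMSO 1% final.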

human PDE2A1 = human PDE2A1 (Homo sapiens (Human), UniProt O00408); test: IMAP FP PDE selectivity panel, human PDE2A1; format: biochemical
How it was run: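 IMAP FP format: substrate 50 nM FAM-cAMP plus 1000 nM cGMP, enzyme (insect-cell GST-tagged human PDE2A1) at ~20% conversion, 60 min reaction at room temperature. Apparent inhibition constants calculated from parallel/perpendicular fluorescence with KM 10,000 nM.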

[1] = Rhesus PDE2, Lab B, read-out: Rhesus PDE2 Ki (nM) - Lab B
[2] = Human PDE2, Lab B, read-out: Human PDE2 Ki (nM) - Lab B
[3] = Rhesus PDE2, Lab A, read-out: Rhesus PDE2 Ki (nM) - Lab A
[4] = Human PDE2, Lab A, read-out: Human PDE2 Ki (nM) - Lab A

Chain of Rhesus PDE2A3 (B3VTJ2 1-941): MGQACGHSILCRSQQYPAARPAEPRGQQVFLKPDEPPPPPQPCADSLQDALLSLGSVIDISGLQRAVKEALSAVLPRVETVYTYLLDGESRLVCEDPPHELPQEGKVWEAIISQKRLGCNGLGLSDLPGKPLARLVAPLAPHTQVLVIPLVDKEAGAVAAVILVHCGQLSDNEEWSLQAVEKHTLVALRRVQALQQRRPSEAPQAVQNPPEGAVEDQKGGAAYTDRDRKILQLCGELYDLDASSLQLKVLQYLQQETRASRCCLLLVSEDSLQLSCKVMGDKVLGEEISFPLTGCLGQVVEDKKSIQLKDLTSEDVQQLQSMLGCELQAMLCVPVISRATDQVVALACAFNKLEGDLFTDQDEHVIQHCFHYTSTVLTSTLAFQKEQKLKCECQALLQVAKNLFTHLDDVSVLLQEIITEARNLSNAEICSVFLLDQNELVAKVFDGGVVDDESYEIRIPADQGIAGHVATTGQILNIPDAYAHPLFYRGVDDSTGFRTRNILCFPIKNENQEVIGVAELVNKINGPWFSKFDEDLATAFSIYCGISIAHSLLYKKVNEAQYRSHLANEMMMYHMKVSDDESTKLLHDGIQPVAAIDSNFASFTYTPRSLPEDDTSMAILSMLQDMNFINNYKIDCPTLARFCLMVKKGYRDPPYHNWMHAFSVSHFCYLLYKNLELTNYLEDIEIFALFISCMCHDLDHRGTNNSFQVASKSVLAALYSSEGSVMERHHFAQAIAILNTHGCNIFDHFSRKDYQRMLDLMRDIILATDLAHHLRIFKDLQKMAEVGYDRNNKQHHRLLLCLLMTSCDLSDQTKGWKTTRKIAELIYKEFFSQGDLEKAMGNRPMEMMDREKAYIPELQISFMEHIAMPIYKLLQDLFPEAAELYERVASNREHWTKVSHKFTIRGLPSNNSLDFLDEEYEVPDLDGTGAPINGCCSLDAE
Chain of human PDE2A1 (O00408 other isoform, or with tags, fused parts or gaps): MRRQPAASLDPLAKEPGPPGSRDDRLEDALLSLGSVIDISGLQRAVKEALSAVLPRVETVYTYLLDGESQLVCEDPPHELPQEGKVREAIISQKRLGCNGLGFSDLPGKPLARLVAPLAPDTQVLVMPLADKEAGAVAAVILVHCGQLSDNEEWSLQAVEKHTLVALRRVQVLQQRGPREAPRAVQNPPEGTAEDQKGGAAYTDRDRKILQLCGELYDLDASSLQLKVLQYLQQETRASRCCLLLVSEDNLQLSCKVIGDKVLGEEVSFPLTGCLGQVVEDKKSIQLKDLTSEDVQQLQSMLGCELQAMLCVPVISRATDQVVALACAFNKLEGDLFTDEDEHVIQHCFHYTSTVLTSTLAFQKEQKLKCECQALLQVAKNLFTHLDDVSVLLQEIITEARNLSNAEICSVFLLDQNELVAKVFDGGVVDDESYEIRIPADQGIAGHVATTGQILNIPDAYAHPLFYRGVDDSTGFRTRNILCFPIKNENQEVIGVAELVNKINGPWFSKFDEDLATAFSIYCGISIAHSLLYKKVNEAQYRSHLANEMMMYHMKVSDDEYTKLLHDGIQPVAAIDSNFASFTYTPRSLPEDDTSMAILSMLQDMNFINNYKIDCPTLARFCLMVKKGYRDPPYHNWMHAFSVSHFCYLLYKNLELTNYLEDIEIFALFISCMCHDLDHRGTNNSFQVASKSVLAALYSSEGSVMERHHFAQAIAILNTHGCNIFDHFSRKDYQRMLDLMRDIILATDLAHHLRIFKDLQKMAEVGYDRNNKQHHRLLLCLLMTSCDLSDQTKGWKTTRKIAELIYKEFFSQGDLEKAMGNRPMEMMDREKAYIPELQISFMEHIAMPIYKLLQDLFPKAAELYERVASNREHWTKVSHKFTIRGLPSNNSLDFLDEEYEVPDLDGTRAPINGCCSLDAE

Ki (Rhesus PDE2A3; [1])	Ki (human PDE2A1; [2])	Ki (Rhesus PDE2A3; [3])	Ki (human PDE2A1; [4])	Compound
9.8 nM	8.3 nM			Cc1nc(C(=O)N[C@@H](c2ccc(OC(F)F)cc2)C(C)(C)C)cc(=O)[nH]1 [Example 62, (R)-N-(1-(4-(difluoromethoxy)phenyl)-2,2-dimethylpropyl)-2-methyl-6-oxo-1,6-dihydropyrimidine-4-carboxamide]
1.9 nM	2 nM			Cc1nc(C(=O)N[C@@H](c2ccc(C3CC3)cc2)C(C)(C)C)cc(=O)[nH]1 [Example 63, (R)-N-(1-(4-cyclopropylphenyl)-2,2-dimethylpropyl)-2-methyl-6-oxo-1,6-dihydropyrimidine-4-carboxamide]
		38 nM	18 nM	Cc1nc(C(=O)N[C@@H](c2ccc(C(F)(F)F)cc2)[C@@H](C)O)cc(=O)[nH]1 [Example 65, N-((1S,2R)-2-hydroxy-1-(4-(trifluoromethyl)phenyl)propyl)-2-methyl-6-oxo-1,6-dihydropyrimidine-4-carboxamide]
		11 nM	5.8 nM	Cc1nc(C(=O)N[C@H](C)c2ccc(SC(F)(F)F)cc2)cc(=O)[nH]1 [Example 66, 2-methyl-6-oxo-N-[(1R)-1-{4-[(trifluoromethyl)sulfanyl]phenyl}ethyl]-1,6-dihydropyrimidine-4-carboxamide]
19 nM	12 nM	16 nM	~9.6 nM	Cc1nc(C(=O)NC2(c3ccc(OC(F)(F)F)c(F)c3)CC2)cc(=O)[nH]1 [Example 67, N-{1-[3-fluoro-4-(trifluoromethoxy)phenyl]cyclopropyl}-2-methyl-6-oxo-1,6-dihydropyrimidine-4-carboxamide]
		26 nM	17 nM	Cc1nc(C(=O)N[C@@H](c2ccc(C(F)(F)F)c(F)c2)C2CC2)cc(=O)[nH]1 [Example 68, N-{(R)-cyclopropyl[3-fluoro-4-(trifluoromethyl)phenyl]methyl}-2-methyl-6-oxo-1,6-dihydropyrimidine-4-carboxamide]
		23 nM	18 nM	Cc1nc(C(=O)N[C@@H](c2ccc(C(F)(F)F)cc2)C2CC2)cc(=O)[nH]1 [Example 69, N-{(R)-cyclopropyl[4-(trifluoromethyl)phenyl]methyl}-2-methyl-6-oxo-1,6-dihydropyrimidine-4-carboxamide]
29 nM	29 nM	25 nM	~14 nM	Cc1nc(C(=O)N[C@@H](c2ccc(OC(F)(F)F)cc2)C2CC2)cc(=O)[nH]1 [Example 70, N-{(R)-cyclopropyl[4-(trifluoromethoxy)phenyl]methyl}-2-methyl-6-oxo-1,6-dihydropyrimidine-4-carboxamide]
4.9 nM	5.3 nM	4.1 nM		CC(C)[C@@H](NC(=O)c1cc(=O)[nH]c(-c2ncccn2)n1)c1ccc(C(F)(F)F)cc1 [Example 73, N-{(1R)-2-methyl-1-[4-(trifluoromethyl)phenyl]propyl}-6-oxo-1,6-dihydro-2,2′-bipyrimidine-4-carboxamide]
4.8 nM	4.7 nM	5 nM		CC(C)[C@@H](NC(=O)c1cc(=O)[nH]c(-c2ncccn2)n1)c1ccc(OC(F)(F)F)c(F)c1 [Example 74, N-{(1R)-1-[3-fluoro-4-(trifluoromethoxy)phenyl]-2-methylpropyl}-6-oxo-1,6-dihydro-2,2′-bipyrimidine-4-carboxamide]
		5.1 nM	3 nM	CC(C)[C@@H](NC(=O)c1cc(=O)[nH]c(-c2ncccn2)n1)c1ccc(OC(F)(F)F)cc1 [Example 75, N-{(1R)-2-methyl-1-[4-(trifluoromethoxy)phenyl]propyl}-6-oxo-1,6-dihydro-2,2′-bipyrimidine-4-carboxamide]
18 nM	21 nM	17 nM		O=C(NC1(c2ccc(C(F)(F)F)c(F)c2)CC1)c1cc(=O)[nH]c(-c2ncccn2)n1 [Example 76, N-{1-[3-fluoro-4-(trifluoromethyl)phenyl]cyclopropyl}-6-oxo-1,6-dihydro-2,2′-bipyrimidine-4-carboxamide]
14 nM	21 nM	19 nM		O=C(NC1(c2ccc(SC(F)(F)F)cc2)CC1)c1cc(=O)[nH]c(-c2ncccn2)n1 [Example 77, 6-oxo-N-(1-{4-[(trifluoromethyl)sulfanyl]phenyl}cyclopropyl)-1,6-dihydro-2,2′-bipyrimidine-4-carboxamide]
25 nM	35 nM	22 nM		CCc1ccc(C(C)NC(=O)c2cc(=O)[nH]c(-c3ncccn3)n2)cc1 (stereo not shown) [Example 79, N-[1-(4-ethylphenyl)ethyl]-6-oxo-1,6-dihydro-2,2′-bipyrimidine-4-carboxamide]
17 nM	25 nM	23 nM		O=C(NC1(c2ccc(OC(F)(F)F)c(F)c2)CC1)c1cc(=O)[nH]c(-c2ncccn2)n1 [Example 81, N-{1-[3-fluoro-4-(trifluoromethoxy)phenyl]cyclopropyl}-6-oxo-1,6-dihydro-2,2′-bipyrimidine-4-carboxamide]
		153 nM	82 nM	CC(C)(NC(=O)c1cc(=O)[nH]c(-c2ncccn2)n1)c1ccc(C(F)(F)F)c(F)c1 [Example 82, N-{1-[3-fluoro-4-(trifluoromethyl)phenyl]-1-methylethyl}-6-oxo-1,6-dihydro-2,2′-bipyrimidine-4-carboxamide]
26 nM	27 nM	21 nM	~5.4 nM	CC(NC(=O)c1cc(=O)[nH]c(-c2ncccn2)n1)c1ccc(C2CC2)cc1 (stereo not shown) [Example 83, N-[1-(4-cyclopropylphenyl)ethyl]-6-oxo-1,6-dihydro-2,2′-bipyrimidine-4-carboxamide]
		117 nM	28 nM	COc1ccc2cc(C(C)NC(=O)c3cc(=O)[nH]c(-c4ncccn4)n3)ccc2c1 (stereo not shown) [Example 84, N-[1-(6-methoxynaphthalen-2-yl)ethyl]-6-oxo-1,6-dihydro-2,2′-bipyrimidine-4-carboxamide]
		60 nM	41 nM	CC(NC(=O)c1cc(=O)[nH]c(-c2ncccn2)n1)c1ccc(Br)cc1 (stereo not shown) [Example 85, N-[1-(4-bromophenyl)ethyl]-6-oxo-1,6-dihydro-2,2′-bipyrimidine-4-carboxamide]
		237 nM	199 nM	COc1ccc([C@@H](C)NC(=O)c2cc(=O)[nH]c(-c3ncccn3)n2)cc1 [Example 86, N-[(1R)-1-(4-methoxyphenyl)ethyl]-6-oxo-1,6-dihydro-2,2′-bipyrimidine-4-carboxamide]
9.3 nM	9.8 nM	6.4 nM		CC[C@@H](NC(=O)c1cc(=O)[nH]c(-c2ncccn2)n1)c1ccc(OC(F)(F)F)c(F)c1 [Example 89, N-{(1R)-1-[3-fluoro-4-(trifluoromethoxy)phenyl]propyl}-6-oxo-1,6-dihydro-2,2′-bipyrimidine-4-carboxamide]
28 nM	33 nM	34 nM	~9.8 nM	O=C(N[C@@H](c1ccc(C(F)(F)F)c(F)c1)C1CC1)c1cc(=O)[nH]c(-c2ncccn2)n1 [Example 91, N-{(R)-cyclopropyl[3-fluoro-4-(trifluoromethyl)phenyl]methyl}-6-oxo-1,6-dihydro-2,2′-bipyrimidine-4-carboxamide]
		91 nM	21 nM	O=C(N[C@@H](c1ccc(OC(F)(F)F)cc1)C1CC1)c1cc(=O)[nH]c(-c2ncccn2)n1 [Example 92, N-{(R)-cyclopropyl[4-(trifluoromethoxy)phenyl]methyl}-6-oxo-1,6-dihydro-2,2′-bipyrimidine-4-carboxamide]
		35 nM	9.6 nM	O=C(N[C@@H](c1ccc(OC(F)(F)F)c(F)c1)C1CC1)c1cc(=O)[nH]c(-c2ncccn2)n1 [Example 93, N-{(R)-cyclopropyl[3-fluoro-4-(trifluoromethoxy)phenyl]methyl}-6-oxo-1,6-dihydro-2,2′-bipyrimidine-4-carboxamide]
		7.4 nM	3.1 nM	O=C(N[C@@H](c1ccc(SC(F)(F)F)cc1)C1CC1)c1cc(=O)[nH]c(-c2ncccn2)n1 [Example 95, N-[(R)-cyclopropyl{4-[(trifluoromethyl)sulfanyl]phenyl}methyl]-6-oxo-1,6-dihydro-2,2′-bipyrimidine-4-carboxamide]
12 nM	15 nM	8.8 nM		C[C@@H](NC(=O)c1cc(=O)[nH]c(-c2ncccn2)n1)c1ccc(C(F)(F)F)c(F)c1 [Example 98, N-{(1R)-1-[3-fluoro-4-(trifluoromethyl)phenyl]ethyl}-6-oxo-1,6-dihydro-2,2′-bipyrimidine-4-carboxamide]
		58 nM	24 nM	C[C@@H](NC(=O)c1cc(=O)[nH]c(-c2ncccn2)n1)c1ccc(C(F)(F)F)cc1F [Example 99, N-[(1R)-1-[2-fluoro-4-(trifluoromethyl)phenyl]ethyl}-6-oxo-1,6-dihydro-2,2′-bipyrimidine-4-carboxamide]
28 nM	33 nM	28 nM	~8.9 nM	C[C@@H](NC(=O)c1cc(=O)[nH]c(-c2ncccn2)n1)c1ccc(OC(F)(F)F)cc1F [Example 101, N-{(1R)-1-[2-fluoro-4-(trifluoromethoxy)phenyl]ethyl}-6-oxo-1,6-dihydro-2,2′-bipyrimidine-4-carboxamide]
		5.5 nM	3.4 nM	C[C@@H](NC(=O)c1cc(=O)[nH]c(-c2ncccn2)n1)c1ccc(OC(F)(F)F)c(F)c1 [Example 103, N-{(1R)-1-[3-fluoro-4-(trifluoromethoxy)phenyl]ethyl}-6-oxo-1,6-dihydro-2,2′-bipyrimidine-4-carboxamide]
